Measurements taken from paper PMC7421780 (Future Medicinal Chemistry, 2020).
In brackets after ≈: the same amount, converted by molar mass.

What was measured:
Assay in all cases: microbe, parasite or virus in culture
Format in all cases: cell-based
Details in all cases: Mycobacterium tuberculosis
[1] = test system: INH-R1 (Mtb strain resistant to isoniazid)
[2] = test system: FQ-R1 (Mtb strain resistant to fluoroquinolone)
[3] = test system: RIF-R1 (Mtb strain resistant to rifampicin)
[4] = test system: RIF-R2 (Mtb strain resistant to rifampicin)
[5] = test system: INH-R2 (Mtb strain resistant to isoniazid)

Row | Structure (SMILES) | IC50 [1] | IC90 [1] | MIC [1] | IC50 [2] | IC90 [2] | MIC [2] | IC50 [3] | IC90 [3] | MIC [3] | IC50 [4] | IC90 [4] | MIC [4] | IC50 [5] | IC90 [5] | MIC [5]
1 | O=C(C[n+]1ccn(Cc2cccc(Cn3cc[n+](CC(=O)c4ccc([N+](=O)[O-])cc4)c3)n2)c1)c1ccc([N+](=O)[O-])cc1.[Br-].[Br-] [Compound 4f, 1,1′-(pyridine-2,6-diylbis(methylene))bis(3-(2-(4-nitrophenyl)-2-oxoethyl)-1H-imidazol-3-ium) bromide] | 46 µM | 52 µM | 55 µM | 49 µM | 91 µM | 87 µM | 35 µM | 100 µM | 67 µM | 40 µM | 120 µM | > 200 µM | 39 µM | 75 µM | 65 µM
2 | CO[C@H]1/C=C/O[C@@]2(C)Oc3c(C)c(O)c4c(O)c(c(/C=N/N5CCN(C)CC5)c(O)c4c3C2=O)NC(=O)/C(C)=C\C=C\[C@H](C)[C@H](O)[C@@H](C)[C@@H](O)[C@@H](C)[C@H](OC(C)=O)[C@@H]1C [Rifampicin, reference compound] | – | 0.022 µM | – | 0.013 µM | 0.039 µM | 0.027 µM (≈ 0.0222 µg/mL) | 1.2 µM | 2.3 µM | – | > 50 µM | > 50 µM | > 50 µM | 0.0047 µM | 0.012 µM | 0.065 µM (≈ 0.0535 µg/mL)
3 | O=C(C[n+]1cn(Cc2cccc(Cn3c[n+](CC(=O)c4ccccc4)c4ccccc43)n2)c2ccccc21)c1ccccc1.[Br-].[Br-] [Compound 6c, 1,1′-(pyridine-2,6-diylbis(methylene))bis(3-(2-oxo-2-phenylethyl)-1H-benzo[d]imidazol-3-ium) bromide] | 42 µM | 170 µM | 120 µM | 40 µM | > 200 µM | 200 µM | 24 µM | 110 µM | 87 µM | 44 µM | 120 µM | 100 µM | 42 µM | 150 µM | 110 µM
4 | C[C@H]1COc2c(N3CCN(C)CC3)c(F)cc3c(=O)c(C(=O)O)cn1c23 [Compound C3, Levofloxacin, reference compound] | 0.64 µM | 1.4 µM | 1.2 µM (≈ 0.434 µg/mL) | 12 µM | 22 µM | 20 µM (≈ 7.23 µg/mL) | 0.59 µM | 0.91 µM | – | 0.6 µM | 1.2 µM | 1.1 µM (≈ 0.398 µg/mL) | 0.84 µM | 1.4 µM | –
5 | O=C(C[n+]1cn(Cc2cccc(Cn3c[n+](CC(=O)c4ccc([N+](=O)[O-])cc4)c4ccccc43)n2)c2ccccc21)c1ccc([N+](=O)[O-])cc1.[Br-].[Br-] [Compound 6f, 1,1′-(pyridine-2,6-diylbis(methylene))bis(3-(2-(4-nitrophenyl)-2-oxoethyl)-1H-benzo[d]imidazol-3-ium) bromide] | 13 µM | 21 µM | 24 µM | 18 µM | 38 µM | 38 µM | 15 µM | 24 µM | 25 µM | 17 µM | 31 µM | 30 µM | 13 µM | 22 µM | 25 µM
6 | O=[N+]([O-])c1cn(Cc2cccc(Cn3cnc([N+](=O)[O-])c3)n2)cn1 [Compound 2b, 2,6-bis((4-nitro-1H-imidazol-1-yl)methyl)pyridine] | 68 µM | 90 µM | 98 µM (≈ 32.3 µg/mL) | 66 µM | 92 µM | 102 µM (≈ 33.6 µg/mL) | 60 µM | 160 µM | 111 µM (≈ 36.5 µg/mL) | 38 µM | 61 µM | 68 µM (≈ 22.4 µg/mL) | 24 µM | 28 µM | 28 µM (≈ 9.22 µg/mL)
7 | NNC(=O)c1ccncc1 [Isoniazid, reference compound] | > 200 µM | > 200 µM | > 200 µM | 0.36 µM | 0.47 µM | 0.35 µM (≈ 0.048 µg/mL) | 0.15 µM | 0.21 µM | 0.17 µM (≈ 0.0233 µg/mL) | 0.54 µM | 0.6 µM | 0.62 µM (≈ 0.085 µg/mL) | > 200 µM | > 200 µM | > 200 µM
8 | c1cc(Cn2cnc3ccccc32)nc(Cn2cnc3ccccc32)c1 [Compound 5, 2,6-bis((1H-benzo[d]imidazol-1-yl)methyl)pyridine] | > 50 µM | > 50 µM | > 50 µM | > 50 µM | > 50 µM | > 50 µM | > 50 µM | > 50 µM | > 50 µM | > 50 µM | > 50 µM | > 50 µM | > 50 µM | > 50 µM | > 50 µM
